Source: patent publication US20090203708A1, “NOVEL SUBSTITUTED-1-H-QUINAZOLINE-2,4-DIONE DERIVATIVES, PREPARATION METHOD THEREOF AND PHARMACEUTICAL COMPOSITION CONTAINING THE SAME” (Korea Research Institute of Chemical Technology, priority 2006, published 2009)

Experiments:
D2 (hD2L receptor) = molecular target: T1, D2 (hD2L receptor) (Homo sapiens, UniProt P14416); assay: Radioligand binding assay, dopamine D2; settings: [3H] spiperone 1 nM; read-out: Binding affinity IC50 D2
T1 construct: purchased BioSignal Packard Inc., Montreal, Canada
T1 sequence (P14416 whole entry): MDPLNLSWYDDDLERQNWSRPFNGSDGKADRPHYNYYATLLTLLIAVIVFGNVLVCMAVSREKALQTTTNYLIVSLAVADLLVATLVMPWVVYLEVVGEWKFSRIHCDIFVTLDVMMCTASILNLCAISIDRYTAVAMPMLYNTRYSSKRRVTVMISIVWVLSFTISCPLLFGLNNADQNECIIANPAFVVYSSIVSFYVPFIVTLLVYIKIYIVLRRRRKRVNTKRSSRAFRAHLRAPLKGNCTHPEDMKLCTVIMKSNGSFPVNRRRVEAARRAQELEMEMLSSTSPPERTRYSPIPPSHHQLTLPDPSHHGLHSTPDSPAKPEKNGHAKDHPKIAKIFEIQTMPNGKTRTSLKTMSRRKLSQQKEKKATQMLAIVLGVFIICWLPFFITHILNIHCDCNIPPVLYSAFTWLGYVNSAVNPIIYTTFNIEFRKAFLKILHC
Experimental: (§1) Radioligand binding assays for dopamine receptor family (D1, D2 and D3) were performed according to the protocols provided by the manufacturer of receptor membranes (BioSignal Packard Inc., Montreal, Canada). The radioligands used were [^3H] spiperone (for hD2L and hD3 receptors, 1 nM) and [^3H] YM-09151-2 (hD4.2 receptor, 0.06 nM). Briefly, the buffer used in the D1, D2 and D3 receptor binding assay was 50 mM Tris-HCl (pH 7.4), containing 10 mM MgCl2 and 1 mM EDTA, or 50 mM Tris-HCl (pH 7.4), containing 5 mM MgCl2, 5 mM EDTA, 5 mM KCl, 1.5 mM CaCl2 and 120 mM NaCl. For [^3H] YM-09151-2 receptor binding assays, 50 mM Tris-HCl (pH 7.4) containing 5 mM MgCl2, 5 mM EDTA, 5 mM KCl and 1.5 mM CaCl2, was used as a buffer. Nonspecific binding was determined with haloperidol (10 μM) for D2 and D3 and clozapine (10 μM) for D4 receptors.
(§2) Competition binding studies were carried out with 7-8 concentrations of the test compound run in duplicate tubes, and isotherms from three assays were calculated by computerized nonlinear regression analysis (GraphPad Prism Program, San Diego, […]) to yield median inhibitory concentration (IC50) values.

D4 (hD4.2 receptor) = molecular target: T2, D4 (hD4.2 receptor) (Homo sapiens, UniProt P21917, DEL265-296); assay: Radioligand binding assay, dopamine D4; settings: [3H] YM-09151-2 0.06 nM; read-out: Binding affinity IC50 D4
T2 construct: purchased BioSignal Packard Inc., Montreal, Canada
T2 sequence (P21917 with tags, fused parts or gaps DEL265-296): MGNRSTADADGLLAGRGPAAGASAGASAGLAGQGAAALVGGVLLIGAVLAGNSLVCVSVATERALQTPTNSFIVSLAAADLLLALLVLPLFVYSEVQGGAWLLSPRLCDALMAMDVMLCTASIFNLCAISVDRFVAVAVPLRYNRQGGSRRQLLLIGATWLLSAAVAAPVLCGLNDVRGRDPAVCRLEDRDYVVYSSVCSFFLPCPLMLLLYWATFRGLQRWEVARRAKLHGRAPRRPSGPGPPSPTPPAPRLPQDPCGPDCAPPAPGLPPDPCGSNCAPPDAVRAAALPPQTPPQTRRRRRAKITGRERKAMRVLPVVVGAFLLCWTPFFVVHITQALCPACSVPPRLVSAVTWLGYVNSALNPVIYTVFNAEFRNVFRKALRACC
Experimental: as §1, §2

[1] = molecular target: 5-HT7 (human recombinant receptor, CHO-K1) (Homo sapiens, UniProt P34969); assay: Radioligand binding assay, 5-HT7
Chain of 5-HT7 (human recombinant receptor, CHO-K1) (P34969 whole entry): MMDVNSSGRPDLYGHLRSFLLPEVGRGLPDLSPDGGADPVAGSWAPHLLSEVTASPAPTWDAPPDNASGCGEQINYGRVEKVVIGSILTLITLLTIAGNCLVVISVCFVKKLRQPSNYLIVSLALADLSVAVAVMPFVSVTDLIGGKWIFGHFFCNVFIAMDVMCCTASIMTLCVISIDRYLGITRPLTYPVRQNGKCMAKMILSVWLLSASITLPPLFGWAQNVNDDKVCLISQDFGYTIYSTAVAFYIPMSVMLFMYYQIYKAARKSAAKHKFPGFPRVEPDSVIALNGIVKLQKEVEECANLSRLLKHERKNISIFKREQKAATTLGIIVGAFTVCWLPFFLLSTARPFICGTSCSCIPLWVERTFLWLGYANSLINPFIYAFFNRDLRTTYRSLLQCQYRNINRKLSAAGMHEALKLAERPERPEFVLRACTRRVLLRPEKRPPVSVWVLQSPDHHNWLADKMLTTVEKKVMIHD

[2] = molecular target: T3, 5-HT1a (human recombinant receptor, CHO-K1) (Homo sapiens, UniProt P08908); assay: Radioligand binding assay, 5-HT1a
T3 sequence (P08908 1-422): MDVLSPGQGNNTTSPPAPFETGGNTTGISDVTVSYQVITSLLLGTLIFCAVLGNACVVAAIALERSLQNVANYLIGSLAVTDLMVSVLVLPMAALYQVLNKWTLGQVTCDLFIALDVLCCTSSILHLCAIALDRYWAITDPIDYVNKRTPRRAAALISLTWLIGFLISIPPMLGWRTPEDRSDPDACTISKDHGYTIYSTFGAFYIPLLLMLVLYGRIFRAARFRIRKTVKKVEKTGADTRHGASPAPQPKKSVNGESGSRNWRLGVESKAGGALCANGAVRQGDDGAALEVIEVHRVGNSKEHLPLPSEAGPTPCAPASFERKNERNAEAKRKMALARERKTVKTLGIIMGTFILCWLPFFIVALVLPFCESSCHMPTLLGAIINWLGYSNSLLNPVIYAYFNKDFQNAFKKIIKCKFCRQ

[3] = molecular target: 5-HT2a (human recombinant receptor, CHO-K1) (Homo sapiens, UniProt P28223); assay: Radioligand binding assay, 5-HT2a
Chain of 5-HT2a (human recombinant receptor, CHO-K1) (P28223 whole entry): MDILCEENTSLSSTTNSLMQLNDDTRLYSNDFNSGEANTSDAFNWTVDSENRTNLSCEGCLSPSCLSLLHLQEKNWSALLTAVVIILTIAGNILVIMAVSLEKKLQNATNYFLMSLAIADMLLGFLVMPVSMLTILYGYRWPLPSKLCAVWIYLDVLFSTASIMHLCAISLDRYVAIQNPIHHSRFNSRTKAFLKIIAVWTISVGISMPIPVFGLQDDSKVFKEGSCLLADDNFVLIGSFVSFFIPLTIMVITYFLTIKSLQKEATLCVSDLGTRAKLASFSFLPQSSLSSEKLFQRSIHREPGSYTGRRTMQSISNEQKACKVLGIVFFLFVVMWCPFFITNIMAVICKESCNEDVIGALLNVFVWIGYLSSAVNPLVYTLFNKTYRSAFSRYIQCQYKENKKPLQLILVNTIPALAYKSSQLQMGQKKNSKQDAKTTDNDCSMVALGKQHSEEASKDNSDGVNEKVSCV

[4] = molecular target: T4, 5-HT2c (human recombinant receptor, CHO-K1) (Homo sapiens, UniProt P28335); assay: Radioligand binding assay, 5-HT2c
T4 sequence (P28335 33-458): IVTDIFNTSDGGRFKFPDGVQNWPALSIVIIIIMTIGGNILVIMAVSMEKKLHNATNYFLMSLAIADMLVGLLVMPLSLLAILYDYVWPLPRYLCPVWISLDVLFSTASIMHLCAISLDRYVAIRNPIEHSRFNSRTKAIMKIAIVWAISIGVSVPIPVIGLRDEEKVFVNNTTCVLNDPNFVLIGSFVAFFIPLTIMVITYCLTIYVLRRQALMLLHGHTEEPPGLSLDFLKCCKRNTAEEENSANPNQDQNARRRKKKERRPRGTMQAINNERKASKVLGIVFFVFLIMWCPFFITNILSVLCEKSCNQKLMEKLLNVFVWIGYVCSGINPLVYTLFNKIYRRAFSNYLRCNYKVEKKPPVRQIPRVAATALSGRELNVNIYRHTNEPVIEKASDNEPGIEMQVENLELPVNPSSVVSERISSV

D1 receptor = D1 receptor (Homo sapiens, UniProt P21728); assay: Radioligand binding assay, dopamine D1
Chain of D1 receptor (P21728 whole entry): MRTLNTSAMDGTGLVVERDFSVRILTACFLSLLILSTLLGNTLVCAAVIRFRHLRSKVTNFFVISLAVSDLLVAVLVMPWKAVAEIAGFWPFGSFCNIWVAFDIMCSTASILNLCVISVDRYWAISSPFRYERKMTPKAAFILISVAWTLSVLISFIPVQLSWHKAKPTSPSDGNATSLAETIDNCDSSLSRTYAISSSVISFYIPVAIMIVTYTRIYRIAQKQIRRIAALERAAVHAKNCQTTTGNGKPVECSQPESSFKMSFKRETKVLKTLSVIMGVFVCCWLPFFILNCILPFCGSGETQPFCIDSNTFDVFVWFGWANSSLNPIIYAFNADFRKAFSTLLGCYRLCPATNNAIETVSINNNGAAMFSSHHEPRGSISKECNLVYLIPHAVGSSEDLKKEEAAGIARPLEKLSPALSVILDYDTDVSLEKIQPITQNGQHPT

D3 (hD3 receptor) = D3 (hD3 receptor) (Homo sapiens, UniProt P35462); assay: Radioligand binding assay, dopamine D3
Chain of D3 (hD3 receptor) (P35462 whole entry): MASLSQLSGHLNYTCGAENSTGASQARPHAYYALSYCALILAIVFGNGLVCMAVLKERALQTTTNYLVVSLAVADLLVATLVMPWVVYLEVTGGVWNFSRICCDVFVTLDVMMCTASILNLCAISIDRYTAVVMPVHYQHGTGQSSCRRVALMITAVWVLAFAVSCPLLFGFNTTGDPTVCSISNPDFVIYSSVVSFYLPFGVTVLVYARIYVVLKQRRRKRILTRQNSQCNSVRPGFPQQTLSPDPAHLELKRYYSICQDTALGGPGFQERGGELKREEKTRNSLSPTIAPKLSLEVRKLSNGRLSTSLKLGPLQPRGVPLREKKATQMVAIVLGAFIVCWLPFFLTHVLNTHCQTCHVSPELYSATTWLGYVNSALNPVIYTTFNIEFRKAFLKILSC

[5] = molecular target: human serotonin 5-HT6 receptor (Homo sapiens, UniProt P50406); assay: [3H]LSD binding assay for cloned 5-HT6 receptors
Chain of human serotonin 5-HT6 receptor (P50406 whole entry): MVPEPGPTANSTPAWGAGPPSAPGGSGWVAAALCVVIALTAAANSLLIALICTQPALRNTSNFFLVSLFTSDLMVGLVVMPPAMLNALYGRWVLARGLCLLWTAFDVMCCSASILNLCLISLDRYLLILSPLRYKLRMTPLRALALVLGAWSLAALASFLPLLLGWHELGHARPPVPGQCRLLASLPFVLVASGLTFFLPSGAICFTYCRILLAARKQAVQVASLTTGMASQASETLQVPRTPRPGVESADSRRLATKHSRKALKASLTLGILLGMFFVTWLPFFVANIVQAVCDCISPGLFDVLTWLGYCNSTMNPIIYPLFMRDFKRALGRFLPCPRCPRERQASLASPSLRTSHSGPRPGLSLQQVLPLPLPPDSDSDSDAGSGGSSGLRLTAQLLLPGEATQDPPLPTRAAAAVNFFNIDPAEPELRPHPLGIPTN

[6] = molecular target: T5, HeLa cells transfected with human 5-HT6 receptor (Homo sapiens, UniProt P50406); assay: Serotonin-stimulated cAMP accumulation in HeLa cells (EIA); type: cell-based; settings: for effect on serotonin-stimulated cAMP accumulation (in words): HeLa cells, FIG. 1
T5 construct: expressed in transfected cells; host or cells: HeLa
T5 sequence (P50406 whole entry): as above

[7] = test system: retention of a previously learned task; settings: rats, literature; cited from earlier work
[8] = test system: rat maximal electroseizure threshold; settings: oral administration, literature; cited from earlier work
[9] = in vivo; cited from earlier work
[10] = test system: apomorphine-induced PPI disruption; assay: Apomorphine-induced PPI disruption in rat; settings: rat, 2.5, 5, 10 and 20 mg/kg i.p. alone

| Structure (SMILES) | IC50 (D2 (hD2L receptor)) [µM] | IC50 (D4 (hD4.2 receptor)) [µM] | IC50 [1] [µM] | IC50 [2] [µM] | IC50 [3] [µM] | IC50 [4] [µM] | IC50 (D1 receptor) [µM] | IC50 (D3 (hD3 receptor)) [µM] | IC50 [5] [µM] | antagonist activity compared with methiothepin [6] | effect on serotonin-stimulated cAMP accumulation (in words) [6] | melting point [°C] | retention of a previously learned task in water maze [7] | seizure threshold (rat maximal electroseizure threshold) [8] | bioavailability (in words) [9] | clearance (in words) [9] | effect of compound alone on PPI versus vehicle control [10] |
| --- | --- | --- | --- | --- | --- | --- | --- | --- | --- | --- | --- | --- | --- | --- | --- | --- | --- |
| O=c1c2c(N3CCNCC3)cc(Cl)cc2n(Cc2ccccc2)c(=O)n1CCc1ccccc1 [Example 70, 1-benzyl-7-chloro-3-phenethyl-5-piperazin-1-yl-1H-quinazoline-2,4-dione] | 7.44 | > 10 | 7.71 | 2.91 | 0.401 | 0.752 | 5.71 | 2.84 | 0.0006 |  |  |  |  |  |  |  |  |
| CN1CCN(c2cc(Cl)cc3c2c(=O)n(Cc2ccc(F)cc2)c(=O)n3Cc2ccccc2)CC1 [Example 13, 1-benzyl-7-chloro-3-(4-fluoro-benzyl)-5-(4-methyl-piperazin-1-yl)-1H-quinazoline-2,4-dione] | > 10 | > 10 | 8.64 | 2.77 | 1.39 | 1.8 |  | 2.38 | 0.0015 | weaker antagonist activity than methiothepin | identified as 5-HT6 receptor antagonists | 110 to 114 |  |  |  |  |  |
| COc1ccc(S(=O)(=O)Nc2cc(Br)cc(F)c2Br)cc1N1CCNCC1 [SB-357134] |  |  |  |  |  |  |  |  |  |  |  |  | significant improvement in retention of a previously learned task | potent and dose-dependent increase in seizure threshold | excellent oral bioavailability | low clearance rate |  |
| CN1CCN(c2cc(Cl)cc3c2c(=O)n(Cc2ccccc2)c(=O)n3Cc2ccccc2)CC1 [Example 10, 1,3-dibenzyl-7-chloro-5-(4-methyl-piperazin-1yl)-1H-quinazoline-2,4-dione] | 4.35 | > 10 | 6.78 | 4.59 | 1.69 | 4.76 | 5.56 | 1.55 | 0.0024 |  |  | 113 to 116 |  |  |  |  |  |
| O=c1c2c(N3CCNCC3)cc(Cl)cc2n(Cc2ccccc2)c(=O)n1Cc1ccccc1Br [Example 60, 1-benzyl-3-(2-bromo-benzyl)-7-chloro-5-piperazin-1-yl-1H-quinazoline-2,4-dione] |  |  |  |  |  |  |  |  | 0.0039 |  |  | 94 to 97 |  |  |  |  | no significant effects |
| C[C@@H](c1ccccc1)n1c(=O)c2c(N3CCNCC3)cc(Cl)cc2n(Cc2ccccc2)c1=O [Example 69, 1-benzyl-7-chloro-3-[(S)-1-phenyl-ethyl]-5-piperazin-1yl-1H-quinazoline-2,4-dione] | > 10 | > 10 | 7.89 | 5.87 | 0.293 | 0.429 | 8.62 | 1.8 | 0.0027 |  |  |  |  |  |  |  |  |
| CN1CCN(c2cc(Cl)cc3c2c(=O)n(CCc2ccccc2)c(=O)n3Cc2ccccc2)CC1 [Example 42, 1-benzyl-7-chloro-5-(4-methyl-piperazin-1-yl)-3-phenethyl-1H-quinazoline-2,4-dione] | 2.5 | > 10 | 7.03 | 1.3 | 0.244 | 0.43 | 3.45 | 0.638 | 0.0005 |  |  | 136 to 138 |  |  |  |  |  |
| O=c1c2c(N3CCNCC3)cc(Cl)cc2n(Cc2ccccc2)c(=O)n1CCCc1ccccc1 [Example 71, 1-benzyl-7-chloro-3-(3-phenyl-propyl)-5-piperazin-1-yl-1H-quinazoline-2,4-dione] | 2.72 | > 10 | 3.05 | 0.891 | 0.733 | 1.1 | 2.32 | 1.2 | 0.0018 |  |  | 62 to 68 |  |  |  |  |  |
| C[C@@H](c1ccccc1)n1c(=O)c2c(N3CCN(C)CC3)cc(Cl)cc2n(Cc2ccccc2)c1=O [Example 41, 1-benzyl-7-chloro-5-(4-methyl-piperazin-1yl)-3-[(S)-1-phenyl-ethyl]-1H-quinazoline-2,4-dione] | 0.744 | > 10 | 2.74 | > 10 | 0.16 | 0.865 | > 10 | 0.362 | 0.005 |  |  |  |  |  |  |  |  |
| CN1CCN(c2cc(Cl)cc3c2c(=O)n(C)c(=O)n3Cc2ccccc2)CC1 [Example 1, 1-benzyl-7-chloro-3-methyl-5-(4-methyl-piperazin-1-yl)-1H-quinazoline-2,4-dione] |  |  |  |  |  |  |  |  | 0.003 | weaker antagonist activity than methiothepin | identified as 5-HT6 receptor antagonists | 173 to 175 |  |  |  |  |  |
| Cc1cc(C)cc(CCCn2c(=O)c3c(N4CCN(C)CC4)cc(Cl)cc3n(Cc3ccccc3)c2=O)c1 [Example 44, 1-benzyl-7-chloro-3-[3-(3,5-dimethyl-phenyl)-propyl]-5-(4-methyl-piperazin-1-yl)-1H-quinazoline-2,4-dione] | 0.987 | > 10 | > 10 | 2.78 | 0.197 | 2.65 |  | 0.073 | 0.002 |  |  | 67 to 73 |  |  |  |  |  |
| CN1CCN(c2cc(Cl)cc3c2c(=O)n(CCCc2ccccc2)c(=O)n3Cc2ccccc2)CC1 [Example 43, 1-benzyl-7-chloro-5-(4-methyl-piperazin-1-yl)-3-(3-phenyl-propyl)-1H-quinazoline-2,4-dione] | 5.67 | > 10 | 7.76 | 2.64 | 0.892 | 1.42 | 0.961 | 1.75 | 0.0027 |  |  | 55 to 63 |  |  |  |  |  |
